Assay results: patent US20250325531A1, “TREATMENT OF SYSTOLIC DYSFUNCTION” (MyoKardia, Inc., priority 2024, published 2025)
Values joined by “and” are separate entries in the source; they are usually repeats but may differ in a detail not shown here. Equal values may be shown once.

Key:
[1] = Pharmacokinetics of multiple ascending doses (MAD Cohorts A-D) in patients with stable HFrEF; assay type: in vivo, human; conditions: for Accumulation Index: estimated based λz and Tau
Excerpt: This was a randomized, parallel-group, DB, placebo-controlled, adaptive design, sequential ascending (oral) multiple-dose study in stable patients with heart failure. Four MAD Cohorts (A, B, C, D) were enrolled (FIG. 5B). An SRC reviewed results from each cohort and determined the dose and confirmed initial sample size for the subsequent cohort. Additionally, the first 3 patients in each cohort had LVEF ≥25%; the SRC reviewed preliminary safety data from these patients and decided whether to open cohort enrollment to patients with LVEF <25%.
After Screening and qualification, patients were confined to a clinical testing facility from Day 1 (Check-in) to Day 11. Each patient initially received placebo BID for 2 days (Days 1 and 2) in single-blinded manner (“run-in” during acclimatization to confinement in the Clinical Testing Unit) prior to receiving the randomized DB study drug treatment on Day 3. All patients then received either placebo or active Compound I for 7 days (Days 3 through 9), with a follow-up period with patients discharged from the unit on Day 11. A final follow-up clinic visit was conducted on Day 16. More than one patient could be dosed in a cohort at the same time or during the same week depending on administrative issues, i.e., capacity and scheduling.
Patients were dosed twice daily (every 12 hours). Doses could occur ±2 hours from scheduled dosing times as long as doses were separated by at least 10 hours and by no more than 14 hours. The exception to the twice daily dosing was on Day 9 (last dose of randomized DB study drug treatment). On Day 9, a single morning dose was administered.
During the study, multiple evaluations were performed that included: serial TTE assessments (11-14 TTEs per patient on Days 1, 2, 3, 4, 7, 9, 10 and 11); PK sampling (PK sample collected concomitantly with every post-randomization echocardiogram); ECGs (on Days 2, 3, 4, 7, 9, 10, 11 and 16); troponin (collected concomitantly with every post-randomization ECG); and safety laboratory assessments. Confined patients underwent continuous telemetry. Holter monitoring was performed in all patients at baseline (Days 1-2) and at the end of double-blind treatment (Days 7-9). Vital signs were collected daily.
Study medication consisted of Compound I 5 mg tablets, 25 mg tablets, 100 mg tablets, or matching placebo tablets. In Part 1 (SAD), Compound I or placebo was administered after an overnight fast (at least 6 hours), while in Part 2 (MAD), Compound I was administered after a 2 hour fast (Cohort A) or with food (Cohorts B, C, and D). The dose was ingested with a minimum of 240 mL of water, but more water was ingested as needed. The entire dose was administered over a period of up to 15 minutes. The time of dose used to determine future assessments was the time the last tablet was taken. In the cohorts for Part 2 (MAD), a BID regimen was used.
In Part 2 (MAD), Cohort A patients fasted for 2 hours before and 2 hours after dosing. For example, if morning dosing occurred at 8 AM, patients could have a snack at 6 AM and a full breakfast at 10 AM. If afternoon dosing occurred at 8 PM, patients could have dinner at 6 PM and a snack at 10 PM. […] Cohort B, C, and D patients ingested food with each dose.
A total of 40 subjects across 4 cohorts received 7 days of treatment with placebo or Compound I at doses of 50 mg (with food), 75 mg (1 cohort with food, 1 cohort with […]), or 100 mg (with food), BID (see FIG. 5B and Table 14).

healthy subjects = test: Safety and tolerability (AEs, ECG, hs-troponin I) after single ascending doses in healthy volunteers; assay type: in vivo, human
Procedure: PK and PD data were collected as described herein. […] Changes from Baseline at each postbaseline timepoint were assessed.
A 12-lead electrocardiogram (ECG) was obtained after the subjects had rested in a supine position for at least 10 minutes. […] Digital 12-lead ECG evaluations was performed after 10 minutes of rest at Screening, predose on Day 1 (within 2 hours of dosing), and at various predetermined time points. Each time an ECG was completed, a 10-second paper ECG rhythm strip would also be obtained and maintained in the subject's source documentation.
The ECGs were transmitted to the core ECG laboratory who read the recordings in a blinded manner. An automated methodology was utilized with manual over-reading by a cardiologist. The following intervals were measured: RR, PR, QRS, and QT. Heart rate (HR) was calculated as 60/(RR×1000) (with RR expressed in msec) and rounded to the nearest integer.
Corrected QT interval (QTc) was calculated using the manually over-read QT values per the standard procedures of the central ECG laboratory. Each individual ECG QT value was corrected for HR. The measured QT data were corrected for HR using the Fridericia correction QTcF and the Bazzett method (QTcB) as per the following formulae/method (with QT, RR and QTc expressed in msec): […]
Any abnormal findings judged by the investigator to be clinically important were recorded as adverse events (AEs). AEs were mapped to system organ classes (SOCs) and preferred terms (PTs) using the Medical Dictionary for Regulatory Activities (MedDRA). AEs were monitored during the study and the data analyzed with respect to overall incidence, severity, and potential relationship to study medication. The blinded AEs were presented to the SRC for review after each cohort to aid in their decision on the dose of the subsequent cohort or if the study should be terminated. […] No ECG changes or symptoms were noted.
For the final analysis, the AEs were grouped by treatment group with all of the subjects who received placebo pooled as 1 group. AEs with onset on or after the first dose of study medication, or with an onset before the first dose of study medication that increased in severity on or after the first dose of study medication. Treatment-emergent AEs (defined as AEs starting […]) were summarized for the Safety Analysis Population by MedDRA SOC and PT, and by severity and relationship to treatment. Severe and life-threatening AEs, SAEs, and AEs leading to study withdrawal, if any, were presented in data listings.
Serum samples were drawn for hs-troponin I. Analyses were performed using the Abbott Architect STAT High Sensitivity Troponin I assay.

[2] = MAD Cohort A (75 mg BID, 4 h fasting), individual subjects
[3] = MAD Cohort B (50 mg BID, with food), Mean
[4] = MAD Cohort C (75 mg BID, with food), individual subjects

In the case of `Cn1cc(S(=O)(=O)[C@@](C)(F)C2CCN(C(=O)Nc3ccon3)CC2)c(C(F)F)n1` [Compound I, (R)-4-(1-((3-(difluoromethyl)-1-methyl-1H-pyrazol-4-yl)sulfonyl)-1-fluoroethyl)-N-(isoxazol-3-yl) piperidine-1-carboxamide], the “Steady-state (Day 9) post-dose maximum concentration” value (shortened to “Steady-state”) ([1]; Cohort A + C (n = 14), 75 mg BID) is reported as 3862 (27.7%) ng/mL, the “Steady-state” value ([1]; Cohort B (n = 8), 50 mg BID) is reported as 2735 (17.5%) ng/mL and the “Steady-state” value ([1]; Cohort D (n = 6), 100 mg BID) is reported as 5560 (22.8%) ng/mL. The “Accumulation Index” value ([1]; MAD Cohort A (75 mg BID, 4 h fasting), Mean) was 3.11, the “AUCtau, Day 1” value [1, 2] was 10610 ng·h/mL and the “Accumulation Index” value [1, 2] was 3.82 and 3.89 and 2.79* and 2.21 and 3.00 and 2.61. The “Cmax, SS” value [1, 3] was 2771 ng/mL, the “Accumulation Index” value [1, 3] was 3.55 and the “Accumulation Index” value ([1]; MAD Cohort B (50 mg BID, with food), individual subjects) was 3.63 and 5.03 and 4.46 and 2.93 and 3.51 and 2.42 and 3.20 (2×) and 4.23*. The “Accumulation Index” value ([1]; MAD Cohort C (75 mg BID, with food), Mean) was 3.18, the “AUCtau, Day 1” value [1, 4] was 10560 ng·h/mL and the “Accumulation Index” value [1, 4] was 2.18 and 2.39 and 2.99 and 3.31 and 5.51 and 2.43 and 2.20 and 4.17 and 3.42. The “Accumulation Index” value ([1]; MAD Cohort D (100 mg BID, with food), Mean) was 3.30, the “Accumulation Index” value ([1]; MAD Cohort D (100 mg BID, with food), individual subjects) was 3.46 and 3.77 and 3.06 and 3.31 and 2.61 and 3.62 and the “subjects with AEs related to treatment” value (healthy subjects; 50 mg (50.0%)) was 3 subjects. For the same compound, the “serious AE, one subject” value (healthy subjects; 100 mg, 16-22 hours postdosing) was “short duration of complete AV block”, the “subjects with AEs related to treatment” value (healthy subjects; 350 mg (50.0%)) was 3 subjects and the hs-troponin I concentration, one subject (healthy subjects; 525 mg, 6 hours postdose, upper limit of normal 15) was 16 ng/L.
